Laboratory results published in patent US10813886B2, “Methods and systems for improved bioavailability of active pharmaceutical ingredients including esomeprazole” (priority 2013, dated 2020).
Converted amounts (≈) assume the structure as drawn.

Columns and labels:
[1] = human, in vivo
From the text: Patients were selected from volunteers aged 18 to 65 years, inclusive, with a Body Mass Index (BMI) between […] inclusive and free from any significant diseases including cardiac, renal and gastrointestinal disease. […] The crossover design eliminated potential treatment effects on the outcome, as well as effectively allowing the subject to serve as their own control. Each dosing occasion was separated by a 7-14 day washout period. Fasting conditions represented an overnight fast of at least 10 hours and fed state was after a high calorie, high fat breakfast 30 minutes prior to dosing.
The % EMT was quantified from human plasma according to methods based on the FDA Bioanalytical Method Validation Guide for Industry and the EMA Guideline on bioanalytical method validation (York Bioanalytical Solutions). Briefly, plasma samples were submitted to supported liquid extraction and liquid chromatography with tandem mass spectrometric detection (lower limit of quantification 5.00 ng/ml with a sample aliquot volume of 100 microliters). The analytes detected were esomeprazole, 5-hydroxyomeprazole, and omeprazole sulphone and were validated against commercial samples and calibration standards. […] Calibration samples were obtained commercially as follows: esomeprazole (Sigma-Aldrich), 5-hydroxyomeprazole, and omeprazole sulphone (Toronto Chemicals Inc.). Internal standards omeprazole d3, 5-hydroxyomeprazole d3 and omeprazole sulphone-d3 were also utilized (Toronto Chemicals Inc.). Plasma samples were stored at −20° C. Data was collected using Analyst software (Applied Biosystems-Sciex) in combination with Watson LIMS (Thermo Fisher Scientific); peak area ratios were used to generate calibration curves using regression functions.

[2] = as the magnesium trihydrate, cited from earlier work
[3] = cited from earlier work

## COc1ccc2nc([S@@+]([O-])Cc3ncc(C)c(OC)c3C)[nH]c2c1 [Esomeprazole]
[1]
  Intra-subject Coefficient of Variation of AUCinf: 40.85 CV %
  Intra-subject Coefficient of Variation of AUCt: 83.08 CV %
  Intra-subject Coefficient of Variation of Cmax: 97.51 CV %
[2]
  solubility in heptane: insoluble
[2]; in water at 25° C.
  solubility in water: 1500 µg/mL (≈ 4.34 mM)
[3]; acid conditions
  stability in acid conditions: degrades
[3]; pH 6.8
  stability at pH 6.8: stable
